In ChEMBL document CHEMBL3734713, “4-Thiazolidinone derivatives as potent antimicrobial agents: microwave-assisted synthesis, biological evaluation and docking studies” (2015):
≈ marks a conversion by molar mass, not a printed value.

Key:
[1] = tested on: Bacillus cereus; test: Antibacterial activity against clinical isolates of Bacillus cereus assessed as growth inhibition after 24 hrs at 37 degC by iodonitrotetrazolium chloride staining based microdilution broth assay; type: functional
[2] = tested on: Micrococcus flavus; test: Antibacterial activity against Micrococcus flavus ATCC 10240 assessed as growth inhibition after 24 hrs at 37 degC by iodonitrotetrazolium chloride staining based microdilution broth assay; type: functional; conditions: ATCC 10240, 24 h
[3] = tested on: Staphylococcus aureus; test: Antibacterial activity against Staphylococcus aureus ATCC 6538 assessed as growth inhibition after 24 hrs at 37 degC by iodonitrotetrazolium chloride staining based microdilution broth assay; type: functional; conditions: ATCC 6538, 24 h
[4] = tested on: Listeria monocytogenes; test: Antibacterial activity against Listeria monocytogenes NCTC 7973 assessed as growth inhibition after 24 hrs at 37 degC by iodonitrotetrazolium chloride staining based microdilution broth assay; type: functional; conditions: NCTC 7973, 24 h
[5] = tested on: Escherichia coli; test: Antibacterial activity against Escherichia coli ATCC 35210 assessed as growth inhibition after 24 hrs at 37 degC by iodonitrotetrazolium chloride staining based microdilution broth assay; type: functional; conditions: ATCC 35210, 24 h
[6] = tested on: Enterobacter cloacae; test: Antibacterial activity against human isolate of Enterobacter cloacae assessed as growth inhibition after 24 hrs at 37 degC by iodonitrotetrazolium chloride staining based microdilution broth assay; type: functional
[7] = tested on: Pseudomonas aeruginosa; test: Antibacterial activity against Pseudomonas aeruginosa ATCC 27853 assessed as growth inhibition after 24 hrs at 37 degC by iodonitrotetrazolium chloride staining based microdilution broth assay; type: functional; conditions: ATCC 27853, 24 h
[8] = tested on: Salmonella typhimurium; test: Antibacterial activity against Salmonella typhimurium ATCC 13311 assessed as growth inhibition after 24 hrs at 37 degC by iodonitrotetrazolium chloride staining based microdilution broth assay; type: functional, Salmonella enterica subsp. enterica serovar Typhimurium; conditions: Salmonella enterica, ATCC 13311, 24 h
[9] = tested on: Aspergillus fumigatus; test: Antifungal activity against Aspergillus fumigatus ATCC 1022 assessed as growth inhibition after 72 hrs at 28 degC by serial dilution method; type: functional; conditions: for MIC: Aspergillus fumigatus, ATCC 1022, 72 h
[10] = tested on: Aspergillus versicolor; test: Antifungal activity against Aspergillus versicolor ATCC 11730 assessed as growth inhibition after 72 hrs at 28 degC by serial dilution method; type: functional; conditions: for MIC: Aspergillus versicolor, ATCC 11730, 72 h
[11] = tested on: Aspergillus ochraceus; test: Antifungal activity against Aspergillus ochraceus ATCC 12066 assessed as growth inhibition after 72 hrs at 28 degC by serial dilution method; type: functional; conditions: for MIC: Aspergillus ochraceus, ATCC 12066, 72 h
[12] = tested on: Aspergillus niger; test: Antifungal activity against Aspergillus niger ATCC 6275 assessed as growth inhibition after 72 hrs at 28 degC by serial dilution method; type: functional; conditions: for MIC: Aspergillus niger, ATCC 6275, 72 h
[13] = tested on: Trichoderma viride; test: Antifungal activity against Trichoderma viride IAM 5061 assessed as growth inhibition after 72 hrs at 28 degC by serial dilution method; type: functional; conditions: for MIC: Trichoderma viride, IAM 5061, 72 h
[14] = tested on: Talaromyces funiculosus; test: Antifungal activity against Penicillium funiculosum ATCC 36839 assessed as growth inhibition after 72 hrs at 28 degC by serial dilution method; type: functional; conditions: for MIC: Talaromyces funiculosus, ATCC 36839, 72 h
[15] = tested on: Penicillium ochrochloron; test: Antifungal activity against Penicillium ochrochloron ATCC 9112 assessed as growth inhibition after 72 hrs at 28 degC by serial dilution method; type: functional; conditions: for MIC: Penicillium ochrochloron, ATCC 9112, 72 h
[16] = tested on: Candida albicans; test: Antifungal activity against Candida albicans ATCC 10231 assessed as growth inhibition after 72 hrs at 28 degC by serial dilution method; type: functional; conditions: for MIC: Candida albicans, ATCC 10231, 72 h
[17] = target: Human immunodeficiency virus type 1 reverse transcriptase (Human immunodeficiency virus 1) (UniProt Q72547); test: Inhibition of HIV1 reverse transcriptase assessed as residual enzyme activity by measuring reduction in [3H]dTTP incorporation into poly(rA)-oligo(dT) at 4 uM incubated for 15 mins by scintillation counting method relative to control

O=C1CSC(c2ccc(Cl)cc2)N1c1nc(C23CC4CC(CC(C4)C2)C3)cs1 (configuration not stated)
MBC [1]: 62.5 µM (≈ 26.9 µg/mL) | MIC [1]: 16.2 µM (≈ 7 µg/mL) | MBC [2]: 62.5 µM (≈ 26.9 µg/mL) | MIC [2]: 30.6 µM (≈ 13.2 µg/mL) | MBC [3]: 62.5 µM (≈ 26.9 µg/mL) | MIC [3]: 16.2 µM (≈ 7 µg/mL) | MBC [4]: 125 µM (≈ 53.9 µg/mL) | MIC [4]: 62.5 µM (≈ 26.9 µg/mL) | MBC [5]: 125 µM (≈ 53.9 µg/mL) | MIC [5]: 62.5 µM (≈ 26.9 µg/mL) | MBC [6]: 125 µM (≈ 53.9 µg/mL) | MIC [6]: 62.5 µM (≈ 26.9 µg/mL) | MBC [7]: 125 µM (≈ 53.9 µg/mL) | MIC [7]: 16.2 µM (≈ 7 µg/mL) | MBC [8]: 62.5 µM (≈ 26.9 µg/mL) | MIC [8]: 16.2 µM (≈ 7 µg/mL) | MFC99.5 [9]: 0.07 ×10⁻² umol/ml | MIC [9]: 0.45 µM (≈ 0.194 µg/mL) | MFC99.5 [10]: 0.07 ×10⁻² umol/ml | MIC [10]: 0.5 µM (≈ 0.216 µg/mL) | MFC99.5 [11]: 0.07 ×10⁻² umol/ml | MIC [11]: 0.5 µM (≈ 0.216 µg/mL) | MFC99.5 [12]: 0.07 ×10⁻² umol/ml | MIC [12]: 0.45 µM (≈ 0.194 µg/mL) | MFC99.5 [13]: 0.05 ×10⁻² umol/ml | MIC [13]: 0.3 µM (≈ 0.129 µg/mL) | MFC99.5 [14]: 0.07 ×10⁻² umol/ml | MIC [14]: 0.45 µM (≈ 0.194 µg/mL) | MFC99.5 [15]: 0.07 ×10⁻² umol/ml | MIC [15]: 0.3 µM (≈ 0.129 µg/mL) | MFC99.5 [16]: 1.16 ×10⁻² umol/ml | MIC [16]: 5.8 µM (≈ 2.5 µg/mL) | Activity [17]: 99%

COc1ccc(C2SCC(=O)N2c2nc(C34CC5CC(CC(C5)C3)C4)cs2)cc1 (configuration not stated)
MBC [1]: 30.6 µM (≈ 13.1 µg/mL) | MIC [1]: 16.3 µM (≈ 6.95 µg/mL) | MBC [2]: 125 µM (≈ 53.3 µg/mL) | MIC [2]: 62.5 µM (≈ 26.7 µg/mL) | MBC [3]: 62.5 µM (≈ 26.7 µg/mL) | MIC [3]: 30.6 µM (≈ 13.1 µg/mL) | MBC [4]: 125 µM (≈ 53.3 µg/mL) | MIC [4]: 62.5 µM (≈ 26.7 µg/mL) | MBC [5]: 125 µM (≈ 53.3 µg/mL) | MIC [5]: 30.6 µM (≈ 13.1 µg/mL) | MBC [6]: 125 µM (≈ 53.3 µg/mL) | MIC [6]: 30.6 µM (≈ 13.1 µg/mL) | MBC [7]: 62.5 µM (≈ 26.7 µg/mL) | MIC [7]: 30.6 µM (≈ 13.1 µg/mL) | MBC [8]: 62.5 µM (≈ 26.7 µg/mL) | MIC [8]: 30.6 µM (≈ 13.1 µg/mL) | MFC99.5 [9]: 2.34 ×10⁻² umol/ml | MIC [9]: 11.7 µM (≈ 4.99 µg/mL) | MFC99.5 [10]: 0.58 ×10⁻² umol/ml | MIC [10]: 2.9 µM (≈ 1.24 µg/mL) | MFC99.5 [11]: 0.29 ×10⁻² umol/ml | MIC [11]: 1.4 µM (≈ 0.597 µg/mL) | MFC99.5 [12]: 0.58 ×10⁻² umol/ml | MIC [12]: 2.9 µM (≈ 1.24 µg/mL) | MFC99.5 [13]: 0.29 ×10⁻² umol/ml | MIC [13]: 1.4 µM (≈ 0.597 µg/mL) | MFC99.5 [14]: 0.58 ×10⁻² umol/ml | MIC [14]: 2.9 µM (≈ 1.24 µg/mL) | MFC99.5 [15]: 0.14 ×10⁻² umol/ml | MIC [15]: 0.9 µM (≈ 0.384 µg/mL) | MFC99.5 [16]: 2.34 ×10⁻² umol/ml | MIC [16]: 11.7 µM (≈ 4.99 µg/mL) | Activity [17]: 100%

O=C1CSC(c2ccc(Br)cc2)N1c1nc(C23CC4CC(CC(C4)C2)C3)cs1 (configuration not stated)
MBC [1]: 210 µM (≈ 99.9 µg/mL) | MIC [1]: 105 µM (≈ 49.9 µg/mL) | MBC [2]: 420 µM (≈ 200 µg/mL) | MIC [2]: 210 µM (≈ 99.9 µg/mL) | MBC [3]: 420 µM (≈ 200 µg/mL) | MIC [3]: 420 µM (≈ 200 µg/mL) | MBC [4]: 630 µM (≈ 300 µg/mL) | MIC [4]: 420 µM (≈ 200 µg/mL) | MBC [5]: 210 µM (≈ 99.9 µg/mL) | MIC [5]: 210 µM (≈ 99.9 µg/mL) | MBC [6]: 420 µM (≈ 200 µg/mL) | MIC [6]: 20 µM (≈ 9.51 µg/mL) | MBC [7]: 630 µM (≈ 300 µg/mL) | MIC [7]: 420 µM (≈ 200 µg/mL) | MBC [8]: 420 µM (≈ 200 µg/mL) | MIC [8]: 210 µM (≈ 99.9 µg/mL) | MFC99.5 [9]: 21.02 ×10⁻² umol/ml | MIC [9]: 210 µM (≈ 99.9 µg/mL) | MFC99.5 [10]: 10.51 ×10⁻² umol/ml | MIC [10]: 105 µM (≈ 50 µg/mL) | MFC99.5 [11]: 42.04 ×10⁻² umol/ml | MIC [11]: 105 µM (≈ 50 µg/mL) | MFC99.5 [12]: 31.54 ×10⁻² umol/ml | MIC [12]: 210 µM (≈ 99.9 µg/mL) | MFC99.5 [13]: 10.51 ×10⁻² umol/ml | MIC [13]: 105 µM (≈ 50 µg/mL) | MFC99.5 [14]: 52.58 ×10⁻² umol/ml | MIC [14]: 210 µM (≈ 99.9 µg/mL) | MFC99.5 [15]: 21.02 ×10⁻² umol/ml | MIC [15]: 210 µM (≈ 99.9 µg/mL) | MFC99.5 [16]: 73.6 ×10⁻² umol/ml | MIC [16]: 526 µM (≈ 250 µg/mL) | Activity [17]: 59.9%

COc1ccc(OC)c(C2SCC(=O)N2c2nc(C34CC5CC(CC(C5)C3)C4)cs2)c1 (configuration not stated)
MBC [1]: 438 µM (≈ 200 µg/mL) | MIC [1]: 219 µM (≈ 100 µg/mL) | MBC [2]: 438 µM (≈ 200 µg/mL) | MIC [2]: 219 µM (≈ 100 µg/mL) | MBC [3]: 657 µM (≈ 300 µg/mL) | MIC [3]: 438 µM (≈ 200 µg/mL) | MBC [4]: 657 µM (≈ 300 µg/mL) | MIC [4]: 438 µM (≈ 200 µg/mL) | MBC [5]: 438 µM (≈ 200 µg/mL) | MIC [5]: 219 µM (≈ 100 µg/mL) | MBC [6]: 438 µM (≈ 200 µg/mL) | MIC [6]: 219 µM (≈ 100 µg/mL) | MBC [7]: 438 µM (≈ 200 µg/mL) | MIC [7]: 438 µM (≈ 200 µg/mL) | MBC [8]: 438 µM (≈ 200 µg/mL) | MIC [8]: 219 µM (≈ 100 µg/mL) | MFC99.5 [9]: 32.85 ×10⁻² umol/ml | MIC [9]: 219 µM (≈ 100 µg/mL) | MFC99.5 [10]: 32.85 ×10⁻² umol/ml | MIC [10]: 219 µM (≈ 100 µg/mL) | MFC99.5 [11]: 32.85 ×10⁻² umol/ml | MIC [11]: 110 µM (≈ 50 µg/mL) | MFC99.5 [12]: 87.6 ×10⁻² umol/ml | MIC [12]: 219 µM (≈ 100 µg/mL) | MFC99.5 [13]: 21.9 ×10⁻² umol/ml | MIC [13]: 219 µM (≈ 100 µg/mL) | MFC99.5 [14]: 43.8 ×10⁻² umol/ml | MIC [14]: 219 µM (≈ 100 µg/mL) | MFC99.5 [15]: 43.8 ×10⁻² umol/ml | MIC [15]: 219 µM (≈ 100 µg/mL) | MFC99.5 [16]: 109.5 ×10⁻² umol/ml | MIC [16]: 876 µM (≈ 400 µg/mL) | Activity [17]: 80.7%
